# Read-outs that look alike come from different tables or passages of the source.
# What was measured:
# [1] = tested on: LNCaP cells (high expression of PSMA); assay: In vitro cellular uptake analysis (LNCaP versus PC-3 cells); type: cell-based, human; conditions: 30 min incubation, Fig. 2; for Cellular uptake, LNCaP cells compared with PC-3 cells: LNCaP high, PC-3 low PSMA expression
# From the text: Human prostate cancer cell lines, prostatic carcinoma-3 (PC-3) (low expression of PSMA), and lymph node carcinoma of the prostate (LNCaP) (high expression of PSMA) were obtained from the RIKEN Cell Bank (Tsukuba, Japan). Cells were maintained in a culture medium, Roswell Park Memorial Institute 1640 medium (FUJIFILM Wako Pure Chemical Corporation, Osaka, Japan), supplemented with 10% heat-inactivated fetal bovine serum (Gibco) and 1% penicillin-streptomycin (FUJIFILM Wako Pure Chemical). The medium for LNCaP was supplemented with 1% sodium pyruvate (FUJIFILM Wako Pure Chemical) in a culture medium. Cells were seeded in 24-well plates (5 × 10^4/well) and cultured for 2 days. After washing twice with phosphate-buffered saline (PBS) (−), the culture medium was changed to Hanks’ balanced salt solution (+). After treatment with [^211At]PSMA1 or [^211At]PSMA5 (approximately 30–50 kBq/well), cells were washed twice with PBS (–). After washing, all cells were lysed with 0.1 N sodium hydroxide, and the radioactivity of the cells was calculated using a 2480 Wizard^2 γ counter (Perkin Elmer, MA, USA). Protein levels were measured using a plate reader (MultiScan FC, Thermo Fisher) and the BCA Protein Assay Kit (FUJIFILM Wako Pure Chemical). Uptake (%uptake/mg protein) was compared between PC-3 and LNCaP cells at 30 min after incubation with [^211At]PSMA1 or [^211At]PSMA5.
# LNCaP xenograft [2] = assay: Biodistribution in LNCaP xenograft model (NOD/SCID mice); type: in vivo; conditions: for Total excretion in the urine / Total excretion in the feces: Fig. 3 legend, mouse strain not given; for Tumor retention (uptake): about 0.11-0.12 MBq; for Kidney uptake, comparison [211At]PSMA5 versus [211At]PSMA6: 3 h post-injection, NOD/SCID mice
# From the text: (§1) Non-obese diabetic/severe combined immunodeficiency (NOD/SCID) mice (5 weeks old, male) were purchased from Charles River Japan, Inc. (Atsugi, Japan). LNCaP cells were suspended in a 1:1 mixture of medium and Matrigel (Corning, USA), subcutaneously implanted into the unilateral flank of the mice (approximately 6–10 × 10^6 cells), and used approximately 5 weeks later (range, 4–8 weeks). Institute of Cancer Research (ICR) mice (6 weeks old, male) were purchased from Japan SLC, Inc. (Shizuoka, Japan) and used as a non-tumor-bearing cohort for the evaluation of biodistribution and histology.
# (§2) High PSMA expression was already confirmed in LNCaP xenografts in our previous study. The brain, thyroid, salivary gland, lung, heart, liver, spleen, pancreas, stomach, small intestine, colon, kidney, bone, testis, blood, urine, feces, and tumor were excised and weighed to evaluate biodistribution after euthanasia at 3 and 24 h after administration. Urine excretion was determined from absorption to filter paper or by urine collection in the cage, and feces were collected from the cage. Radioactivity was measured using a 2480 Wizard^2 γ counter. The detection efficiency for ^211At with the γ counter was calibrated by measurement of the ^211At source whose radioactivity was determined with a Ge semiconductor detector (BE2020, Mirion Technologies (Canberra), Connecticut, USA). Uptake was calculated as the percentage of injected dose (%ID).
# LNCaP xenograft [3] = assay: Treatment effect in LNCaP xenograft mice (tumor size, body weight); type: in vivo, NOD/SCID mice; conditions: single administration 0.4 MBq, versus saline
# From the text: as §1
# LNCaP xenograft mice (body weight = 21.8 ± 5.98 g) were administered [^211At]PSMA5 (0.39 ± 0.03 MBq, 0.002 μg, n = 12), [^211At]PSMA1 (0.40 ± 0.07 MBq, 0.002 μg, n = 5), or saline (n = 10). […] Non-radiolabeled PSMA5 (high mass, 0.02 μg; low mass, 0.002 μg) and PSMA1 (high mass, 0.02 μg; low mass, 0.002 μg) were also administered to LNCaP xenograft mice (each n = 3) and compared with saline-injected mice (n = 3) to assess the absence of antitumor effect by the PSMA compound itself. […] The body weight (g) was also monitored.
# [4] = parameters: method as in PMID 27789722, PMID 27889802; conditions: mice; cited from earlier work
# [5] = parameters: method as in PMID 27789722, PMID 27889802; conditions: humans; cited from earlier work
# [6] = Biodistribution in normal ICR mice; type: in vivo; conditions: 3 h post-injection
# From the text: as §1
# as §2, with “The brain, thyroid, salivary gland, lung, heart, liver, spleen, pancreas, stomach, small intestine, colon, kidney, bone, testis, blood, urine, feces, and tumor were excised and weighed to evaluate biodistribution after euthanasia at 3 and 24 h after administration.” left out
# [7] = Histopathological evaluation of organs in normal ICR mice; type: in vivo; conditions: for Histopathology of kidney parenchyma, salivary gland, stomach, thyroid, spleen and small intestine: 8 weeks after 0.4 MBq
# Procedure: (§3) The excised organs and tissues were fixed in a 10% neutral buffered formalin solution. After fixation, paraffin sections were prepared and stained with hematoxylin and eosin. Specimens were evaluated using an integrated microscope (BZ-X810; Keyence Corporation, Osaka, Japan). Histological evaluation was performed by a toxicopathology specialist with the support of KAC Co. Ltd. (Kyoto, Japan).
# [8] = Urine analysis with urinalysis test strips (protein) in normal ICR mice; type: in vivo; conditions: for Urine test of protein: individual animals No. 1-3
# [9] = parameters: method as in PMID 27230930; conditions: cited from earlier work
# LNCaP xenograft [10] = assay: Planar imaging with γ camera in LNCaP xenograft mice; type: in vivo, NOD/SCID mice; conditions: 3 and 24 h post-injection
# Procedure: Planar imaging was performed using a γ camera system (E-cam, Siemens) at 3 and 24 h after administration, targeting the X-rays emitted from the daughter nuclide ^211Po (energy window: 79 keV ± 20%). Image analysis was performed by setting the regions of interest in the tumor and kidneys using AMIDE software (version 1.0.4).
# [11] = Histopathological evaluation of organs in LNCaP xenograft mice; type: in vivo; conditions: LNCaP xenograft NOD/SCID mice, 3 and 6 weeks after 0.4 MBq
# Procedure: as §3
# [12] = Plasma BUN and creatinine (renal function) in ICR mice; type: in vivo; conditions: 8 weeks after administration, Supplementary Fig. S2
# Procedure: Plasma was obtained by centrifuging a portion of the blood sample collected at the time of euthanasia and was measured using a dry clinical chemistry analyzer (SPOTCHEM D-00 QR D-02; ARKRAY, Inc., Kyoto, Japan). Blood urea nitrogen (BUN) and creatinine (Cre) levels were also measured. Cre values less than 0.2 were considered 0.2 in the statistical analysis.
# [13] = In vivo deastatination / metabolites in blood and urine; parameters: species or system mice
SMILES,Total excretion in the urine (LNCaP xenograft [2]; 3 h) [%ID],Tumor retention (uptake) (LNCaP xenograft [2]; 3 h after administration) [%ID/g],Total excretion in the feces (LNCaP xenograft [2]; 24 h) [%ID],Total excretion in the urine (LNCaP xenograft [2]; 24 h) [%ID],Tumor retention (uptake) (LNCaP xenograft [2]; 24 h after administration) [%ID/g],"Kidney uptake, comparison [211At]PSMA5 versus [211At]PSMA6 (LNCaP xenograft [2])","Kidney uptake, comparison [211At]PSMA5 versus [211At]PSMA6 [6]","Histopathology of kidney parenchyma, salivary gland, stomach, thyroid, spleen and small intestine [7]",Urine test of protein ([8]; Day 21 after 0.4 MBq),Urine test of protein ([8]; Day 38 after 0.4 MBq),"Cellular uptake, LNCaP cells compared with PC-3 cells [1]",Changes in body weight (LNCaP xenograft [3]),Treatment effect on tumor growth (tumor size) (LNCaP xenograft [3]),also measured
O=C(O)CCC(NC(=O)NC(CCCCNC(=O)C(Cc1ccc2ccccc2c1)NC(=O)c1ccc(CNC(=O)CCC(=O)NCCCCC(NC(=O)CNC(=O)Cc2ccc([211At])cc2)C(=O)O)cc1)C(=O)O)C(=O)O (centres unmarked) [[^211At]PSMA1],0.49 ± 0.37,12.4 ± 4.8,14.0 ± 4.8,14.7 ± 10.0,8.7 ± 3.5,,,,,,more highly incorporated into LNCaP cells,No significant changes in body weight,good treatment effect,"Kidney excretion, comparison with [211At]PSMA5 and [211At]PSMA6 (LNCaP xenograft [2]; mouse, in vivo): superior"
O=C(O)CC[C@H](NC(=O)N[C@@H](CCCCNC(=O)[C@H](Cc1ccc2ccccc2c1)NC(=O)c1ccc(CNC(=O)[C@H](CCC(=O)O)NC(=O)[C@H](CCC(=O)O)NC(=O)c2ccc([18F])nc2)cc1)C(=O)O)C(=O)O [[^18F]PSMA-1007],,,,,,,,,,,,,,Urine excretion in PET [4]: high urine excretion; Urine excretion in PET [5]: minimal
"O=C(O)CC[C@H](NC(=O)NC(CCCCNC(=O)c1ccc([211At])cc1)C(=O)O)C(=O)O (stereo partly drawn) [^211At-6, (2S)-2-(3-(1-carboxy-5-(4-211At-astatobenzamido)pentyl)ureido)-pentanedioic acid]",,,,,,,,,,,,,,"Kidney findings after treatment ([9]; 1.5 MBq): subcortical atrophy, and degenerative loss of proximal tubules; Proteinuria ([9]; animals treated with 1.5 MBq): developed proteinuria 1–2 months after treatment; Proteinuria ([9]; animals treated with 37 kBq): developed mild proteinuria that was later resolved"

# Further lines, with some results ahead:
Total excretion in the urine (LNCaP xenograft [2]; 3 h) [%ID],Tumor retention (uptake) (LNCaP xenograft [2]; 3 h after administration) [%ID/g],Total excretion in the feces (LNCaP xenograft [2]; 24 h) [%ID],Total excretion in the urine (LNCaP xenograft [2]; 24 h) [%ID],Tumor retention (uptake) (LNCaP xenograft [2]; 24 h after administration) [%ID/g],"Kidney uptake, comparison [211At]PSMA5 versus [211At]PSMA6 (LNCaP xenograft [2])","Kidney uptake, comparison [211At]PSMA5 versus [211At]PSMA6 [6]","Histopathology of kidney parenchyma, salivary gland, stomach, thyroid, spleen and small intestine [7]",Urine test of protein ([8]; Day 21 after 0.4 MBq),Urine test of protein ([8]; Day 38 after 0.4 MBq),SMILES,"Cellular uptake, LNCaP cells compared with PC-3 cells [1]",Changes in body weight (LNCaP xenograft [3]),Treatment effect on tumor growth (tumor size) (LNCaP xenograft [3]),also measured
,19.1 ± 4.5,9.78 ± 0.79,6.20 ± 1.51,18.1 ± 2.2,similar,similar,no significant changes,30 (1+) mg/dl,30 (1+) mg/dl,O=C(O)CC[C@H](NC(=O)N[C@@H](CCCCNC(=O)[C@@H](Cc1ccc2ccccc2c1)NC(=O)c1ccc(CNC(=O)[C@H](CCC(=O)O)NC(=O)[C@H](CCC(=O)O)NC(=O)Cc2ccc([211At])cc2)cc1)C(=O)O)C(=O)O [[^211At]PSMA6],,,,"Retention in the kidney, comparison with [211At]PSMA5 (LNCaP xenograft [2]; 24 h post-injection): higher retention in the kidney; Urine test of protein ([8]; Day 24 after 0.4 MBq): 100 (2+) mg/dl; Urine test of protein ([8]; Day 31 after 0.4 MBq): 30 (1+) mg/dl; Urine test of protein ([8]; Day 45 after 0.4 MBq): 30 (1+) mg/dl"
8.26 ± 5.00,30.6 ± 17.8,35.2 ± 9.2,15.33 ± 6.3,40.7 ± 2.6,similar,similar,no significant changes,30 (1+) mg/dl,30 (1+) mg/dl,O=C(O)CCC(NC(=O)NC(CCCCNC(=O)C(Cc1ccc2ccccc2c1)NC(=O)c1ccc(CNC(=O)C(CCC(=O)O)NC(=O)C(CCC(=O)O)NC(=O)Cc2ccc([211At])cc2)cc1)C(=O)O)C(=O)O (centres unmarked) [[^211At]PSMA5],more highly incorporated into LNCaP cells,No significant changes in body weight,excellent tumor growth suppression,"Cellular uptake, comparison between compounds [1]: higher uptake than [^211At]PSMA1; Tumor uptake, comparison with [211At]PSMA6 (LNCaP xenograft [2]; mouse, in vivo): higher tumor uptake than [^211At]PSMA6; Tumor-to-kidney uptake, comparison with [211At]PSMA6 (LNCaP xenograft [2]; mouse, in vivo): better tumor-to-kidney uptake; Uptake in the tumor xenografts and kidneys on planar images (LNCaP xenograft [10]): High uptake; Mice with regenerated tubules in the cortical area of the kidney ([7]; 2 weeks after high dose 1 MBq): one out of four; Histopathology of salivary glands and stomach [11]: No significant changes; Histopathology of the kidneys [11]: regenerated tubules were observed in the cortical area in all NOD/SCID mice; Proteinuria ([8]; 8 weeks after administration): did not observe proteinuria; Urine test of protein ([8]; Day 10 after 0.4 MBq): 30 (1+) mg/dl; Urine test of protein ([8]; Day 14 after 0.4 MBq): 30 (1+) mg/dl; BUN and Cre levels [12]: did not observe proteinuria or increased BUN and Cre levels; Metabolites, including astatide ions, present in urine (deastatination) ([13]; 3 h after injection, mice): not more than 1.0 % of the injected doses; Radioactivity in the blood and urine from intact molecules ([13]; 3 h post injection): most of the radioactivity observed in the blood and urine was from intact molecules"
